For orientation: IC50 means the concentration needed to halve the response being measured.

Holding throughout (assay type): cell-based
The test system of data set [1] is MCF-7 cells. Nature of the data set: MTT anti-proliferative assay, MCF-7. To be noted: Homo sapiens, MCF7, read-out: IC50 MCF-7.
For data set [2], the system named is MDA-MB-231 cells. Nature of the data set: MTT anti-proliferative assay, MDA-MB-231. To be noted: for IC50: Homo sapiens, MDA-MB-231, read-out: IC50 MDA-MB-231; for selectivity between cell lines (in words): MDA-MB-231 versus MCF-7. (In general: Tetrazolium dyes change colour on reduction, which living cells bring about.)
For data set [3], the system named is HEK-293 cells. The data set is described as follows: Cytotoxicity against non-tumorigenic HEK-293 cells. To be noted: for IC50: Homo sapiens, HEK293, read-out: IC50 value in HEK293 cells.

“Also recorded” adds a separate entry of the source.

Consider `O=C1N(Cc2cn(CC/C(=C(\c3ccccc3)c3ccc(OCCO)cc3)c3ccccc3)nn2)c2ccc(Br)cc2C12OCCO2` [15d], for which the IC50 in data set [1] and in data set [2] was above 100 µM throughout.
For the compound `O=C1N(Cc2cn(CC/C(=C(\c3ccccc3)c3ccc(OCCO)cc3)c3ccccc3)nn2)c2ccc(F)cc2C12OCCO2` [15c], the IC50 in data set [1] and in data set [2] was above 100 µM each time.
On to `O=C1C(=O)N(Cc2cn(CC/C(=C(\c3ccccc3)c3ccc(OCCO)cc3)c3ccccc3)nn2)c2ccc(Cl)cc21` [14b], for which, in data set [1], the IC50 came to 33.1 µM. Further, in data set [2], the IC50 worked out at 18.1 µM and the “selectivity between cell lines (in words)” value was “selective for the estrogen-independent MDA-MB-231 cells”.
With `OCCOc1ccc(/C(=C(/CCCl)c2ccccc2)c2ccccc2)cc1` [OSP, Ospemifene, reference compound], the figures for the IC50 in data set [1] and in data set [2] were 55 µM and above 100 µM, respectively.
The matching figures for `O=C1C(=O)N(Cc2cn(CC/C(=C(\c3ccccc3)c3ccc(OCCO)cc3)c3ccccc3)nn2)c2ccc(Br)cc21` [14d]: above 100 µM and above 100 µM.
The matching figures for `O=C1N(Cc2cn(CC/C(=C(\c3ccccc3)c3ccc(OCCO)cc3)c3ccccc3)nn2)c2ccc(Cl)cc2C12OCCO2` [15b]: above 100 µM and above 100 µM.
Turning to `O=C1C(=O)N(Cc2cn(CC/C(=C(\c3ccccc3)c3ccc(OCCO)cc3)c3ccccc3)nn2)c2ccc(F)cc21` [14c], the half-inhibitory concentration (IC50) in data set [1] and in data set [2] was 70.7 µM throughout.
On to `CC1=CC(=O)c2c(O)cccc2C1=O` [Plumbagin, reference compound], for which the values for the half-maximal inhibitory concentration (IC50) in data set [1] and in data set [2] were 3.5 µM and 4.4 µM, respectively.
Regarding `COc1ccc(/C(=C(/CCn2cc(CN3C(=O)C(=O)c4cc(Br)ccc43)nn2)c2ccccc2)c2ccccc2)cc1` [12b], the concentration for half-maximal inhibition (IC50) in data set [1] is above 100 µM. For the same compound, in data set [2], the IC50 was found to be 75.9 µM and the “selectivity between cell lines (in words)” value is “selective against MDA-MB-231 cells”.
Take `O=C1C(=O)N(Cc2cn(CC/C(=C(\c3ccccc3)c3ccc(OCCO)cc3)c3ccccc3)nn2)c2c(Br)cc(Br)cc21` [14e]: in data set [1], the IC50 is 31.6 µM. Besides, in data set [3], the “cytotoxicity against HEK-293 cells (in words)” value (from here on “cytotoxicity”) is “non-cytotoxic” and the 50% inhibitory concentration (IC50) was above 100 µM. In data set [2], the IC50 was 19.2 µM and the “selectivity between cell lines (in words)” value was “selective for the estrogen-independent MDA-MB-231 cells; also recorded: more selective towards the ER-cells”.
For `O=C1C(=O)N(Cc2cn(CC/C(=C(\c3ccccc3)c3ccc(OCCO)cc3)c3ccccc3)nn2)c2ccccc21` [14a], the 50% inhibitory concentration (IC50) in data set [1] and in data set [2] was above 100 µM throughout.
As to `COc1ccc(/C(=C(/CCn2cc(CN3C(=O)C4(OCCO4)c4cc(Cl)ccc43)nn2)c2ccccc2)c2ccccc2)cc1` [13a], the 50% inhibitory concentration (IC50) in data set [1] was determined as 21 µM; in data set [3], 43.9 µM; in data set [2], 20.4 µM. In addition, in data set [3], the “cytotoxicity” value is recorded as “moderately cytotoxic”.
Turning to `COc1ccc(/C(=C(/CCn2cc(CN3C(=O)C(=O)c4cc(Br)cc(Br)c43)nn2)c2ccccc2)c2ccccc2)cc1` [12c], the 50% inhibitory concentration (IC50) in data set [1] was found to be 13.1 µM; in data set [3] it was 21.6 µM; in data set [2], 14.8 µM. In addition, the “cytotoxicity” value in data set [3] is “moderately cytotoxic”.

The values are drawn from article PMC9076587 (RSC Advances, 2019).
